Data: patent US20210053957A1, “HERBICIDAL COMPOUNDS” (SYNGENTA PARTICIPATIONS AG, priority 2018, published 2021)

Legend:
Test in all cases: Post-emergence efficacy, glasshouse spray test
Assay type in all cases: in vivo
[1] = test system: Amaranthus palmeri (AMAPA); conditions: Amaranthus palmeri, post-emergence, 312 h; Application Rate 500 g/Ha; evaluated after 13 days; read-out: Control of weed species after post-emergence application, AMAPA (100=total damage to plant; 0=no damage to plant)
Method in brief: (§1)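 Plants grown 14 days in glasshouse (24/16 °C day/night, 14 h light, 65% humidity), then sprayed post-emergence with compound formulated in acetone/IF50 emulsifier, diluted in 0.25% or 1% Empicol ESC70 plus 1% ammonium sulphate. Damage scored after 13 days, 0 (none) to 100 (total).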

[2] = test system: Chenopodium album (CHEAL); conditions: Chenopodium album, post-emergence, 312 h; Application Rate 500 g/Ha; evaluated after 13 days; read-out: Control of weed species after post-emergence application, CHEAL (100=total damage to plant; 0=no damage to plant)
Method in brief: as §1

[3] = test system: Digitaria sanguinalis (DIGSA); conditions: Digitaria sanguinalis, post-emergence, 312 h; Application Rate 500 g/Ha; evaluated after 13 days; read-out: Control of weed species after post-emergence application, DIGSA (100=total damage to plant; 0=no damage to plant)
Method in brief: as §1

[4] = test system: Echinochloa crus-galli (ECHCG); conditions: Echinochloa crus-galli, post-emergence, 312 h; Application Rate 500 g/Ha; evaluated after 13 days; read-out: Control of weed species after post-emergence application, ECHCG (100=total damage to plant; 0=no damage to plant)
Method in brief: as §1

Eleusine indica (ELEIN) = conditions: Eleusine indica, post-emergence, 312 h; Application Rate 500 g/Ha; evaluated after 13 days; read-out: Control of weed species after post-emergence application, ELEIN (100=total damage to plant; 0=no damage to plant)
Method in brief: as §1

[5] = test system: Euphorbia heterophylla (EPHHL); conditions: Euphorbia heterophylla, post-emergence, 312 h; Application Rate 500 g/Ha; evaluated after 13 days; read-out: Control of weed species after post-emergence application, EPHHL (100=total damage to plant; 0=no damage to plant)
Method in brief: as §1

[6] = test system: Ipomoea hederacea (IPOHE); conditions: Ipomoea hederacea, post-emergence, 312 h; Application Rate 500 g/Ha; evaluated after 13 days; read-out: Control of weed species after post-emergence application, IPOHE (100=total damage to plant; 0=no damage to plant)
Method in brief: as §1

Lolium perenne (LOLPE) = conditions: Lolium perenne, post-emergence, 312 h; Application Rate 500 g/Ha; evaluated after 13 days; read-out: Control of weed species after post-emergence application, LOLPE (100=total damage to plant; 0=no damage to plant)
Method in brief: as §1

Setaia fabei (SETFA) = conditions: Setaria faberi, post-emergence, 312 h; Application Rate 500 g/Ha; evaluated after 13 days; read-out: Control of weed species after post-emergence application, SETFA (100=total damage to plant; 0=no damage to plant)
Method in brief: as §1

O=C(O)CC[n+]1ccc(-c2ncsn2)cn1 [Compound A142, 3-[4-(1,2,4-thiadiazol-3-yl)pyridazin-1-ium-1-yl]propanoic acid 2,2,2-trifluoroacetate]
pest or weed control at 500 g/ha [1]: 100%
pest or weed control at 500 g/ha [2]: 90%
pest or weed control at 500 g/ha [3]: 100%
pest or weed control at 500 g/ha [4]: 100%
pest or weed control at 500 g/ha (Eleusine indica (ELEIN)): 100%
pest or weed control at 500 g/ha [5]: 100%
pest or weed control at 500 g/ha [6]: 30%
pest or weed control at 500 g/ha (Lolium perenne (LOLPE)): 90%
pest or weed control at 500 g/ha (Setaia fabei (SETFA)): 90%

O=S(=O)([O-])CC[n+]1ccc(-c2ncsn2)cn1 [Compound A143]
pest or weed control at 500 g/ha [1]: 100%
pest or weed control at 500 g/ha [2]: 90%
pest or weed control at 500 g/ha [3]: 100%
pest or weed control at 500 g/ha [4]: 100%
pest or weed control at 500 g/ha (Eleusine indica (ELEIN)): 100%
pest or weed control at 500 g/ha [5]: 100%
pest or weed control at 500 g/ha [6]: 60%
pest or weed control at 500 g/ha (Lolium perenne (LOLPE)): 100%
pest or weed control at 500 g/ha (Setaia fabei (SETFA)): 90%
